Source: patent US20230390235A1, “THERAPEUTIC AGENT FOR COVID-19” (priority 2020, published 2023)

Key:
[1] = tested on: SARS-CoV-2 S pseudotype virus B.1.429 mutant strain (ε strain); type: cell-based; conditions: ε mutant strain (B.1.429); 100 μM; ACE2-expressing HEK293T cells; GFP fluorescence; FIG. 1
[2] = tested on: SARS-CoV-2 S pseudotype virus N501Y mutant strain; type: cell-based

COCCOCCOC(=O)N[C@@H](CC(C)C)C(=O)N[C@@H](Cc1ccccc1)C(=O)C(=O)NC1CC1 [SNJ-1945] was tested, and the “entry inhibition of pseudotype virus into cells” value [1] was “inhibits entry” and the “entry inhibition of pseudotype virus into cells” value [2] was “inhibits entry”.
